Experiments:
[1] = tested on: parasitoids (wasps) (Cotesia glomerate); assay: Attraction of parasitoids (wasps) to cabbage plants treated with β-glucosidase; assay type: in vivo; settings: amount of β-glucosidase in 25 μl
From the text: We have discovered that generic defense mechanisms are elicited by herbivores such as caterpillars. In this example, a caterpillar (Pieris brassicae) attacked a cabbage plant releasing a defensive mixture of volatiles which attract parasitic wasps (Cotesia glomerate) which then attack and destroy the caterpillars. The caterpillar gut regurgitant contains enzymatic β-glucosidase which elicits the mixture of volatiles referred to above. Commercial β-glucosidase performs in a similar manner.
Cabbage (eight weeks old) and P. Brassicae (caterpillar) and parasitoids (wasps) were reared according to the method of Steinberg S. et al., Entomol. Exp. Appl 63 163-175 (1992). […] Ion chromatograms identified […], 1-hexanol, E-2-hexene 1-YL acetate as major components of the volatiles released by the cabbage plants. This experiment illustrates another specific example (compare to H. zea) of evolutionary arms race wherein an elicitor-antagonist biological system focuses on a defensive enzyme reaction.

[2] = tested on: tobacco leaves (Nicotiana tabacum); assay: Treatment of individual tobacco leaves with test solutions, nicotine reduction; assay type: in vivo; settings: incubated for about 3 days
[3] = tested on: transgenic tobacco plant leaves; settings: transgenic tobacco leaves starting at 0.05 mg per gram; one GOX-leaf bruising treatment
From the text: One group of the tobacco plants was exposed to H. zea neonates for a three day period during the growing season. A second group of the tobacco plants was exposed to H. zea neonates multiple times each for a three-day period during the growing season. A third group of tobacco plants was isolated from H. zea neonates for establishing a control. The leaves were harvested at the end of the growing season and the caterpillars were removed. The tobacco leaves were air dried and processed. Each of the dried tobacco leaves were treated and extracted with 10 ml of 25 mM sodium phosphate buffer at 30° C. for about 24 hours at constant agitation.

Row | Substance | attraction of parasitoids (wasps) [1] | Reduction of Nicotine [2] [mg/g] | nicotine content after treatment [3]
1 | β-glucosidase | clearly resulted in the attraction of parasitoids | – | –
2 | glucose oxidase [Active GOX] | – | 0.60 to 0.70 | 0.01 mg of nicotine/per gram

Reference: US20050113256A1, “Methods of reducing the nicotine content of tobacco plants and tobacco plants obtained thereby” (priority 2003, published 2005)
